One compound from patent US20160050895A1, “TRANSGENIC NON-HUMAN ORGANISMS WITH NON-FUNCTIONAL TSPO GENES” (AUSTRALIAN NUCLEAR SCIENCE AND TECHNOLOGY ORGANIZATION, priority 2013, published 2016) can be followed below.

The subject of assay [1] is TSPO. Description: Film autoradiography of brain sections after facial nerve axotomy. The assay is classed as binding, mouse. The conditions noted are these: TSPO-/- mice. The text has this: (§1) Procedures for facial nerve axotomy were approved by the animal ethics committee at the University of Sydney. Animals were anaesthetised using Isoflurane anaesthesia. Animals were monitored for a combination of respiration, heart rate, oxygen saturation and temperature during procedures using a variety of monitoring equipment to ensure anaesthetic depth. The surgical process commenced when foot-pad or plantar reflex could no longer be elicited. The fur on the ipsilateral (right) side of the neck was shaved from the ear downwards, and the skin cleaned using 70% ethanol. A small incision (0.5-0.7 cm in length) overlying the musculature covering the stylomastoid foramen was made. The facial nerve was identified, isolated and then transected completely. The skin of incision was closed with heal-glue. […] The animals were euthanized with CO2 3 days after the axotomy and brain tissue, including facial nerve nuclei in the brain stem and cerebellum, was immediately dissected, snap-frozen in liquid nitrogen, and then stored in −80° C. freezer until the cryostat section.
A small incision (0.5-0.7 cm) in the skin 0.5 cm dorsal and lateral to the ear was made and the facial nerve transected under an operating microscope. The incision was closed with 3M™ Vetbond™ Tissue Adhesive (St. Paul, Minn., USA). […] Mice were monitored carefully and euthanized with CO2 three days after the operation. Brains were dissected, placed in OCT, transferred to liquid nitrogen, and stored at −80° C. until cryo-sectioning.
(§2) Tissue sections from TSPO^+/+, TSPO^+/− and TSPO^−/− mice were incubated at room temperature for 20 min in 170 mM Tris-HCl pH 7.4 containing 1 nM [^3H]PK11195 (specific activity 84 Ci/mmol; Perkin Elmer, Waltham, Mass., USA), washed twice for 5 min in 170 mM Tris-HCl, rinsed with 3 dips in ice-cold MilliQ H2O, and dried. […] Displacement binding was carried out in the presence of PK11195 (10 μM), CLINDE (10 μM) and PBR-11 (10 μM).

The subject of assay [2] is TSPO. Description: Receptor film autoradiography of tissue sections with [3H]PK11195 and [125I]CLINDE. The assay is classed as binding, mouse. To be noted: spleen, kidney, testis sections from TSPO-/- mice; 3 nM [125I]CLINDE, 1 nM [3H]PK11195. The method, then:
Snap-frozen tissues were sectioned at 20 μm in a cryostat, thaw mounted on poly-L-lysine-coated slides and stored at −80° C. until day of experiment. On the day of the experiment, slides were thawed at room temperature and air dried with a cool stream of air. Total and non-specific binding were determined by incubation with 1 nM of 3H-PK11195 with or without the presence of 3 μM of PK11195 in 130 mM TRIS-HCl buffer (pH 7.4) at room temperature for 20 minutes. Following incubation, the slides were briefly dipped twice in 130 mM TRIS-HCl buffer, washed twice for 5 minutes in fresh 130 mM TRIS-HCl at room temperature. […] Images were analysed with Quantity One imaging analysis program (Bio-Rad, Hercules, Calif. USA); to assess the level of 3H-PK11195 binding, regions of interest were drawn over the tissue and an average optical density/mm^2 was calculated. […]
The organs including brain, retina, heart, kidney and testes used for film autoradiography were dissected from wild-type (TSPO^+/+), heterozygous (TSPO^+/−), and homozygous (TSPO^−/−) mice and snap-frozen in liquid nitrogen. […] Tritium standards (Amersham Biosciences, Uppsala, Sweden) co-exposed with the organ sections on each Hyperfilm-^3H (Kodak Film) at 4° C. for 60 days, were used to quantify the autoradiographically measured binding. […]

The target in assay [3] is T1, TSPO (Mus musculus, UniProt P50637). Described as above. Further details: Snap-frozen tissues were sectioned at 20 μm in a cryostat; from tissue; host or cells: mouse organ sections (brain, retina/eye, heart, adrenal, kidney, testis, spleen), C57BL/6 background. The format is binding. The method, then: Snap-frozen tissues were sectioned at 20 μm in a cryostat, thaw mounted on poly-L-lysine-coated slides and stored at −80° C. until day of experiment. On the day of the experiment, slides were thawed at room temperature and air dried with a cool stream of air. Total and non-specific binding were determined by incubation with 1 nM of 3H-PK11195 with or without the presence of 3 μM of PK11195 in 130 mM TRIS-HCl buffer (pH 7.4) at room temperature for 20 minutes. Following incubation, the slides were briefly dipped twice in 130 mM TRIS-HCl buffer, washed twice for 5 minutes in fresh 130 mM TRIS-HCl at room temperature. The slides were finally briefly rinsed 3 times in chilled distilled H2O, dried under a cool stream of air and allowed to air dried overnight. Sections were exposed to Kodak BioMax MR film along with tritium microscales with known activity concentrations in X-ray film cassettes. Films were developed after 33 days and digitized using a GS800 Calibrated Densitometer (Bio-Rad, Hercules, Calif., USA). Images were analysed with Quantity One imaging analysis program (Bio-Rad, Hercules, Calif. USA); to assess the level of 3H-PK11195 binding, regions of interest were drawn over the tissue and an average optical density/mm^2 was calculated. Data obtained from an individual film, subject to interfilm variations, were normalized against other films through the optical density oftritium microscales.
The organs including brain, retina, heart, kidney and testes used for film autoradiography were dissected from wild-type (TSPO^+/+), heterozygous (TSPO^+/−), and homozygous (TSPO^−/−) mice and snap-frozen in liquid nitrogen. Cryostat organ sections at 18 μm were placed onto superfrost slides (Menzel-Glaser, Braunschweig, Germany) and stored in the dark at −20° C. for no longer than 1 week before the experiment. […] Tritium standards (Amersham Biosciences, Uppsala, Sweden) co-exposed with the organ sections on each Hyperfilm-^3H (Kodak Film) at 4° C. for 60 days, were used to quantify the autoradiographically measured binding. The hyperfilm was developed using Kodak GBX developer and fixer (Sigma Aldrich, St. Louis, Mo., U.S.A.). The hyperfilm was air-dried overnight before being scanned using the ArtixScan 1800f flatbed scanner (Microtek, Hsinchu, Taiwan), with greyscale using a magnification of 400% and an optical resolution of 2400 pixels per inch. No pre-scanning manipulation or filter was applied.
as §2

In assay [4] the target is T1, TSPO. The assay is described as follows: Film autoradiography of brain sections after facial nerve axotomy. The assay is classed as binding. Also noted: from tissue; host or cells: organs of living mice (adrenal gland, kidney, heart, liver, lung, brain). To be noted: TSPO+/+ animals; after facial nerve axotomy.
Text: as §1
A small incision (0.5-0.7 cm) in the skin 0.5 cm dorsal and lateral to the ear was made and the facial nerve transected under an operating microscope. The incision was closed with 3M™ Vetbond™ Tissue Adhesive (St. Paul, Minn., USA). […] Mice were monitored carefully and euthanized with CO2 three days after the operation. […]

Molecules are shown by their SMILES. Entries after “also recorded” stand apart in the source; their conditions may differ.

Regarding `CC[C@@H](C)N(C)C(=O)c1cc2ccccc2c(-c2ccccc2Cl)n1` [[^3H]PK11195], the “TSPO ligand binding in the injured facial nucleus” value in assay [1] (after facial nerve axotomy, activated microglia present) is given as “no binding; also recorded: not associated with an increase in the binding”; in assay [4], “localised induction of TSPO ligand binding”. Further, in assay [1] (injured facial nucleus), the “selectivity in pathologically changed tissue” value is “high selectivity; also recorded: holds true”. In assay [2], the “binding in TSPO-/- tissue” value was “at background level and not displaceable”. For the same compound, the “selectivity for TSPO” value in assay [3] (in vitro, validated against TSPO-/- null background) was “high selectivity”. In addition, in assay [3] (spleen, kidney, testis sections from TSPO+/+ and TSPO+/- mice, 3 nM [125I]CLINDE, 1 nM [3H]PK11195), the “Specific binding in tissue sections” value was “clearly visible”.
